Measured values reported in patent US7521563B2, “Hydroxamic acid derivative and medicine containing the same as active ingredient” (Shizuoka Coffein Co., Ltd., priority 2004, dated 2009).

How the values were obtained:
TNFα production = TNFα production suppression test in LPS-stimulated PMA-differentiated THP-1 cells (ELISA); assay type: cell-based, Human; settings: for TNFα production suppression rate (%): THP-1 cells, LPS 1 μg/mL, 24 hours
Protocol: (§1) Tests were conducted with reference to the method by G. Lozanski et al. (J. Rheumatol., Vol. 19, 921-926, 1992).
(§2) Using a 10% fetal calf serum (FCS)-added PRMI-1640 medium, THP-1 cells (Dainippon Pharmaceutical Co., Ltd.) were prepared in an amount of 10^6/mL, and inoculated on a 48-well microplate in an amount of 500 μL per well. 10^−8 M of phorbol 12-myristate 13-acetate (PMA) was added to the wells, and the cells were cultured for 24 hours to induce differentiation of the cells to macrophages.
(§3) 50 μL of test substance diluting liquid or DMSO diluting liquid was added to the wells, and the cells were preincubated by a CO2 incubator at 37° C. for 30 minutes. 5 μL of LPS (111 μg/mL) (final concentration: 1 μg/mL) was added to each well. Furthermore, wells with no LPS added to the DMSO diluting liquid were set. After the cells were cultured for 24 hours, they were centrifuged to take cell supernatants, and the IL-6 level was measured using the Human IL-6 ELISA kit (Biosource International), and TNFα was measured using the Human tumor necrosis factor-α ELISA kit (Biosource International), by the enzyme-linked immunosorbent assay (ELISA).

IL-6 production = IL-6 production suppression test in LPS-stimulated PMA-differentiated THP-1 cells (ELISA); assay type: cell-based, Human; settings: for IL-6 production suppression rate (%): THP-1 cells, LPS 1 μg/mL, 24 hours
Protocol: as §1, §2, §3

THP-1 cells = test: Evaluation of cytotoxicity by the MTT method; assay type: cell-based; settings: DMSO well = 100%
Protocol: Cytotoxicity was evaluated by the MTT method.
Specifically, a 0.5 mg/mL solution of 3-(4,5-dimethyl-2-thiazolyl)-2,5-diphenyl-2H-tetrazolium bromide (MTT, Sigma) prepared in a 10% fetal calf serum (FCS)-added PRMI-1640 medium was added in an amount of 100 μL per well to cells with culture supernatants removed in test example 1, and the cells were cultured for 3 hours. The culture solution was removed by centrifugal separation, 100 μL of methanol was added to each well, and the absorbance was measured at a wavelength of 570 nm after cytolysis.
The absorbances for the well to which the DMSO diluting liquid was added and the well to which no LPS was added are 100% and 0%, respectively, the absorbances for wells of different doses of test substances are expressed as percentages, and the results are shown in Table 4.

[1] = range of concentrations 1×10^−5-−9 M
[2] = concentration 1 × 10^−9 M (first column)
[3] = concentration 1 × 10^−9 M (second column, as printed)
[4] = active concentration 1 × 10^−6 M
[5] = active concentration 1 × 10^−7 M

Row | SMILES | TNFα production suppressing activity (TNFα production; [1]) | IL-6 production suppressing activity (IL-6 production; [1]) | Cytotoxicity test: absorbance (570 nm, MTT) expressed as percentage (THP-1 cells; concentration 1 × 10^−5 M) | Cytotoxicity test: absorbance (570 nm, MTT) expressed as percentage (THP-1 cells; concentration 1 × 10^−6 M) | Cytotoxicity test: absorbance (570 nm, MTT) expressed as percentage (THP-1 cells; concentration 1 × 10^−7 M) | Cytotoxicity test: absorbance (570 nm, MTT) expressed as percentage (THP-1 cells; [2]) | Cytotoxicity test: absorbance (570 nm, MTT) expressed as percentage (THP-1 cells; [3]) | TNFα production suppression rate (%) (TNFα production; [4]) | TNFα production suppression rate (%) (TNFα production; [5]) | IL-6 production suppression rate (%) (IL-6 production; [4]) | IL-6 production suppression rate (%) (IL-6 production; [5])
1 | O=C(O)CCCCCc1nc(-c2ccccc2)c(-c2ccccc2)o1 [4,5-diphenyl-2-oxazolehexanoic acid, reference compound] | no activity | no activity |  |  |  |  |  |  |  |  | 
2 | O=C(CCCCCc1nc(-c2ccccc2)c(-c2ccc(F)cc2)s1)NO [Example 8, 5-(4-fluorophenyl)-N-hydroxy-4-phenyl-2-thiazolehexanamide] |  |  | 88.9% | 113.7% | 106.7% | 106.7% | 105.3% | 40% |  |  | 
3 | O=C(CCCCCc1ncc(-c2ccc(Br)cc2)s1)NO [Example 20, 5-(4-bromophenyl)-N-hydroxy-2-thiazolehexanamide] |  |  | 82.3% | 97.6% | 102.0% | 95.6% | 104.0% |  | 44% | 64% | 
4 | O=C(CCCCCCc1nc(-c2ccccc2)c(-c2ccccc2)o1)NO [Example 24, N-hydroxy-4,5-diphenyl-2-oxazoleheptanamide] |  |  | 83.8% | 91.8% | 88.1% | 96.4% | 83.9% |  |  |  | 50%
5 | O=C(CCCCCc1nc(-c2ccccc2)c(-c2ccccc2)o1)NO [Example 25, N-hydroxy-4,5-diphenyl-2-oxazolehexanamide] |  |  | 78.9% | 83.6% | 87.6% | 85.8% | 91.9% |  |  |  | 50%
